A word on the IC50: it is the concentration needed to halve the response being measured.

Starred links: 1 amine or outer side, 2 acyl side, 3 side chain; linkers in the order of their positions; H or OH if unused. Non-standard residues stand in square brackets, D forms with d. Residues, ends and D or L forms follow the SMILES beside them. Phe(4-(cis-4-COOH-cHex)) = N[C@@H](Cc1ccc([C@H]2CC[C@@H](C(=O)O)CC2)cc1)C(=O)O; dPro(4R-(4-pyridylmethyl)) = O=C(O)[C@H]1C[C@@H](Cc2ccncc2)CN1; X17 = CN(C)C(=O)c1ccc(-c2ccc(C[C@H](N[*:1])C(=O)[*:2])cc2)cc1; Trp(βS-Me,4-F) = C[C@@H](c1c[nH]c2cccc(F)c12)[C@H](N)C(=O)O; Bip(4'-CONH2) = NC(=O)c1ccc(-c2ccc(C[C@H](N)C(=O)O)cc2)cc1; Bip(4'-COOH) = N[C@@H](Cc1ccc(-c2ccc(C(=O)O)cc2)cc1)C(=O)O; Ala(1-bicyclo(1.1.1)pentyl) = N[C@@H](CC12CC(C1)C2)C(=O)O; dPro(4R-Bzl(4-F)) = O=C(O)[C@H]1C[C@@H](Cc2ccc(F)cc2)CN1; dPro(3S-(4-F-Bn)) = O=C(O)[C@@H]1NCC[C@@H]1Cc1ccc(F)cc1; Bip(4'-Cl) = N[C@@H](Cc1ccc(-c2ccc(Cl)cc2)cc1)C(=O)O; Ala(pyrimidin-5-yl) = N[C@@H](Cc1cncnc1)C(=O)O; Phe(4-COOH) = N[C@@H](Cc1ccc(C(=O)O)cc1)C(=O)O; Bip = N[C@@H](Cc1ccc(-c2ccccc2)cc1)C(=O)O; Pro(cis-4-F) = O=C(O)[C@@H]1C[C@H](F)CN1; X6 = O=C([C@H](Cc1ccncn1)N[*:1])[*:2]; AEF = NCCOc1ccc(C[C@H](N)C(=O)O)cc1; d(αMeD) = C[C@@](N)(CC(=O)O)C(=O)O; 4Pal = N[C@@H](Cc1ccncc1)C(=O)O; aThr = C[C@H](O)[C@H](N)C(=O)O; d(αMeS) = C[C@@](N)(CO)C(=O)O; Dab = NCC[C@H](N)C(=O)O; Aib = CC(C)(N)C(=O)O; Sar = CNCC(=O)O

The target of this assay is T1, IL-1β (Homo sapiens, UniProt P01584).
T1 construct: purchased BioLegend 579404
T1 sequence (P01584 117-269): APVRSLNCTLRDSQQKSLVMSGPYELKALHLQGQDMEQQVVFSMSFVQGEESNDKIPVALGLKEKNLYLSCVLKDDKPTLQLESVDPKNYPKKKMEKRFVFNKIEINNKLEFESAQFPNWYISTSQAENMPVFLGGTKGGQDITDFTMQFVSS
The assay can be described thus: IL-6 assay in MRC5 cells: inhibition of IL-1β induced IL-6 secretion (AlphaLISA). It is filed as cell-based. The conditions noted are these: inhibition of IL-1β induced IL-6 secretion in MRC5 cells; read-out: MRC5 IC50. The gist of the method:
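Compound was pre-incubated 1 h at ambient temperature with recombinant human IL-1β at 2λ EC80 before adding human lung fibroblast MRC5 cells (3000/well) in EMEM with 0.025% BSA. After overnight culture at 37 °C, 5% CO2, secreted IL-6 in conditioned medium was measured by AlphaLISA; IC50 from 4-parameter logistic fits.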
A general note: Bead proximity is the source of the signal in Alpha formats.
Regarding `C[C@@H](c1c[nH]c2cccc(F)c12)[C@@H]1NC(=O)[C@@H]2C[C@H](F)CN2C(=O)CNC(=O)[C@H](Cc2ccc(C(=O)O)cc2)NC(=O)[C@H](CC23CC(C2)C3)NC(=O)[C@H](Cc2ccc([C@H]3CC[C@@H](C(=O)O)CC3)cc2)NC(=O)[C@H]2C[C@@H](Cc3ccncc3)CN2C(=O)CNC(=O)[C@H](CCN)NC(=O)[C@H](CCC(N)=O)NC(=O)[C@H](Cc2cncnc2)NC(=O)[C@@](C)(CC(=O)O)NC(=O)[C@H](Cc2c[nH]c3ccccc23)NC(=O)[C@H](CO)NC(=O)C(C)(C)NC1=O` [Example 335] (cyclo([Phe(4-(cis-4-COOH-cHex))][Ala(1-bicyclo(1.1.1)pentyl)][Phe(4-COOH)]G[Pro(cis-4-F)][Trp(βS-Me,4-F)][Aib]SW[d(αMeD)][Ala(pyrimidin-5-yl)]Q[Dab]G[dPro(4R-(4-pyridylmethyl))])), the 50% inhibitory concentration (IC50) was 0.022 nM.
`CC(=O)NCCOc1ccc(C[C@@H]2NC(=O)[C@H]3C[C@@H](Cc4ccncc4)CN3C(=O)CNC(=O)[C@H](CCN)NC(=O)[C@H](CCC(N)=O)NC(=O)[C@H](Cc3ccccc3)NC(=O)C(C)(C)NC(=O)[C@H](Cc3c[nH]c4ccccc34)NC(=O)[C@H](CCC(=O)O)NC(=O)C(C)(C)NC(=O)[C@H]([C@@H](C)c3c[nH]c4cccc(F)c34)NC(=O)[C@@H]3C[C@H](F)CN3C(=O)CNC(=O)[C@H](Cc3ccc(C(=O)O)cc3)NC(=O)[C@H](Cc3ccncc3)NC2=O)cc1` [Example 336] (cyclo([AEF](Ac)[4Pal][Phe(4-COOH)]G[Pro(cis-4-F)][Trp(βS-Me,4-F)][Aib]EW[Aib]FQ[Dab]G[dPro(4R-(4-pyridylmethyl))])): the IC50 worked out at 0.023 nM.
The figure for `C[C@H](O)[C@@H]1NC(=O)[C@@](C)(CC(=O)O)NC(=O)[C@H](Cc2c[nH]c3ccccc23)NC(=O)[C@H](CO)NC(=O)C(C)(C)NC(=O)[C@H]([C@@H](C)c2c[nH]c3cccc(F)c23)NC(=O)[C@@H]2C[C@H](F)CN2C(=O)CNC(=O)[C@H](Cc2ccc(C(=O)O)cc2)NC(=O)[C@H](Cc2ccncc2)NC(=O)[C@H](Cc2ccc(-c3ccc(C(=O)O)cc3)cc2)NC(=O)[C@H]2C[C@@H](Cc3ccncc3)CN2C(=O)CN(C)C(=O)[C@H](CCN)NC(=O)[C@H](CCC(N)=O)NC1=O` [Example 337] (cyclo([Bip(4'-COOH)][4Pal][Phe(4-COOH)]G[Pro(cis-4-F)][Trp(βS-Me,4-F)][Aib]SW[d(αMeD)][aThr]Q[Dab][Sar][dPro(4R-(4-pyridylmethyl))])) is 0.022 nM; for `C[C@@H](c1c[nH]c2cccc(F)c12)[C@@H]1NC(=O)[C@@H]2C[C@H](F)CN2C(=O)CNC(=O)[C@H](Cc2ccc(C(=O)O)cc2)NC(=O)[C@H](Cc2ccncc2)NC(=O)[C@H](Cc2ccc(-c3ccc(C(=O)N(C)C)cc3)cc2)NC(=O)[C@H]2C[C@@H](Cc3ccncc3)CN2C(=O)CNC(=O)[C@H](CCN)NC(=O)[C@H](CCC(N)=O)NC(=O)[C@H](Cc2cncnc2)NC(=O)[C@@](C)(CO)NC(=O)[C@H](Cc2c[nH]c3ccccc23)NC(=O)[C@H](CO)NC(=O)C(C)(C)NC1=O` [Example 338] (cyclo([X17][4Pal][Phe(4-COOH)]G[Pro(cis-4-F)][Trp(βS-Me,4-F)][Aib]SW[d(αMeS)][Ala(pyrimidin-5-yl)]Q[Dab]G[dPro(4R-(4-pyridylmethyl))])) it is 0.018 nM.
The figure for `C[C@@H](c1c[nH]c2cccc(F)c12)[C@@H]1NC(=O)[C@@H]2C[C@H](F)CN2C(=O)CNC(=O)[C@H](Cc2ccc(C(=O)O)cc2)NC(=O)[C@H](Cc2ccncc2)NC(=O)[C@H](Cc2ccc(-c3ccc(C(N)=O)cc3)cc2)NC(=O)[C@H]2C[C@@H](Cc3ccncc3)CN2C(=O)CNC(=O)[C@H](CCN)NC(=O)[C@H](CCC(N)=O)NC(=O)[C@H](Cc2cncnc2)NC(=O)[C@@](C)(CO)NC(=O)[C@H](Cc2c[nH]c3ccccc23)NC(=O)[C@H](CO)NC(=O)C(C)(C)NC1=O` [Example 339] (cyclo([Bip(4'-CONH2)][4Pal][Phe(4-COOH)]G[Pro(cis-4-F)][Trp(βS-Me,4-F)][Aib]SW[d(αMeS)][Ala(pyrimidin-5-yl)]Q[Dab]G[dPro(4R-(4-pyridylmethyl))])) is 0.024 nM; for `C[C@@H](c1c[nH]c2cccc(F)c12)[C@@H]1NC(=O)[C@@H]2C[C@H](F)CN2C(=O)CNC(=O)[C@H](Cc2ccc(C(=O)O)cc2)NC(=O)[C@H](Cc2ccncc2)NC(=O)[C@H](Cc2ccc(-c3ccccc3)cc2)NC(=O)[C@H]2C[C@@H](Cc3ccncc3)CN2C(=O)CNC(=O)[C@H](CCN)NC(=O)[C@H](CCC(N)=O)NC(=O)[C@H](Cc2cncnc2)NC(=O)[C@@](C)(CO)NC(=O)[C@H](Cc2c[nH]c3ccccc23)NC(=O)[C@H](CO)NC(=O)C(C)(C)NC1=O` [Example 340] (cyclo([Bip][4Pal][Phe(4-COOH)]G[Pro(cis-4-F)][Trp(βS-Me,4-F)][Aib]SW[d(αMeS)][Ala(pyrimidin-5-yl)]Q[Dab]G[dPro(4R-(4-pyridylmethyl))])) it is 0.021 nM; for `C[C@@H](c1c[nH]c2cccc(F)c12)[C@@H]1NC(=O)[C@@H]2C[C@H](F)CN2C(=O)CNC(=O)[C@H](Cc2ccc(C(=O)O)cc2)NC(=O)[C@H](CC23CC(C2)C3)NC(=O)[C@H](Cc2ccc(-c3ccc(C(=O)N(C)C)cc3)cc2)NC(=O)[C@H]2C[C@@H](Cc3ccncc3)CN2C(=O)CNC(=O)[C@H](CCN)NC(=O)[C@H](CCC(N)=O)NC(=O)[C@H](Cc2cncnc2)NC(=O)[C@@](C)(CC(=O)O)NC(=O)[C@H](Cc2c[nH]c3ccccc23)NC(=O)[C@H](CO)NC(=O)C(C)(C)NC1=O` [Example 341] (cyclo([X17][Ala(1-bicyclo(1.1.1)pentyl)][Phe(4-COOH)]G[Pro(cis-4-F)][Trp(βS-Me,4-F)][Aib]SW[d(αMeD)][Ala(pyrimidin-5-yl)]Q[Dab]G[dPro(4R-(4-pyridylmethyl))])) it is 0.024 nM.
In the case of `C[C@@H](c1c[nH]c2cccc(F)c12)[C@@H]1NC(=O)[C@@H]2C[C@H](F)CN2C(=O)CNC(=O)[C@H](Cc2ccc(C(=O)O)cc2)NC(=O)[C@H](CC23CC(C2)C3)NC(=O)[C@H](Cc2ccc(-c3ccc(C(N)=O)cc3)cc2)NC(=O)[C@H]2C[C@@H](Cc3ccncc3)CN2C(=O)CNC(=O)[C@H](CCN)NC(=O)[C@H](CCC(N)=O)NC(=O)[C@H](Cc2cncnc2)NC(=O)[C@@](C)(CC(=O)O)NC(=O)[C@H](Cc2c[nH]c3ccccc23)NC(=O)[C@H](CO)NC(=O)C(C)(C)NC1=O` [Example 342] (cyclo([Bip(4'-CONH2)][Ala(1-bicyclo(1.1.1)pentyl)][Phe(4-COOH)]G[Pro(cis-4-F)][Trp(βS-Me,4-F)][Aib]SW[d(αMeD)][Ala(pyrimidin-5-yl)]Q[Dab]G[dPro(4R-(4-pyridylmethyl))])) it was 0.022 nM.
In the case of `C[C@@H](c1c[nH]c2cccc(F)c12)[C@@H]1NC(=O)[C@@H]2C[C@H](F)CN2C(=O)CNC(=O)[C@H](Cc2ccc(C(=O)O)cc2)NC(=O)[C@H](CC23CC(C2)C3)NC(=O)[C@H](Cc2ccc(-c3ccccc3)cc2)NC(=O)[C@H]2C[C@@H](Cc3ccncc3)CN2C(=O)CNC(=O)[C@H](CCN)NC(=O)[C@H](CCC(N)=O)NC(=O)[C@H](Cc2cncnc2)NC(=O)[C@@](C)(CC(=O)O)NC(=O)[C@H](Cc2c[nH]c3ccccc23)NC(=O)[C@H](CO)NC(=O)C(C)(C)NC1=O` [Example 343] (cyclo([Bip][Ala(1-bicyclo(1.1.1)pentyl)][Phe(4-COOH)]G[Pro(cis-4-F)][Trp(βS-Me,4-F)][Aib]SW[d(αMeD)][Ala(pyrimidin-5-yl)]Q[Dab]G[dPro(4R-(4-pyridylmethyl))])), the IC50 was 0.026 nM.
Take `C[C@@H](c1c[nH]c2cccc(F)c12)[C@@H]1NC(=O)[C@@H]2C[C@H](F)CN2C(=O)CNC(=O)[C@H](Cc2ccc(C(=O)O)cc2)NC(=O)[C@H](Cc2ccncc2)NC(=O)[C@H](Cc2ccc(-c3ccc(Cl)cc3)cc2)NC(=O)[C@H]2C[C@@H](Cc3ccncc3)CN2C(=O)CNC(=O)[C@H](CCN)NC(=O)[C@H](CCC(N)=O)NC(=O)[C@H](Cc2cncnc2)NC(=O)[C@@](C)(CC(=O)O)NC(=O)[C@H](Cc2c[nH]c3ccccc23)NC(=O)[C@H](CO)NC(=O)C(C)(C)NC1=O` [Example 344] (cyclo([Bip(4'-Cl)][4Pal][Phe(4-COOH)]G[Pro(cis-4-F)][Trp(βS-Me,4-F)][Aib]SW[d(αMeD)][Ala(pyrimidin-5-yl)]Q[Dab]G[dPro(4R-(4-pyridylmethyl))])): the half-inhibitory concentration (IC50) is 0.022 nM.
The figure for `C[C@@H](c1c[nH]c2cccc(F)c12)[C@@H]1NC(=O)[C@@H]2C[C@H](F)CN2C(=O)CNC(=O)[C@H](Cc2ccc(C(=O)O)cc2)NC(=O)[C@H](Cc2ccncc2)NC(=O)[C@H](Cc2ccc(-c3ccc(C(=O)O)cc3)cc2)NC(=O)[C@H]2C[C@@H](Cc3ccc(F)cc3)CN2C(=O)CNC(=O)[C@H](CCN)NC(=O)[C@H](CCC(N)=O)NC(=O)[C@H](Cc2ccncn2)NC(=O)C(C)(C)NC(=O)[C@H](Cc2c[nH]c3ccccc23)NC(=O)[C@H](CCC(=O)O)NC(=O)C(C)(C)NC1=O` [Example 345] (cyclo([Bip(4'-COOH)][4Pal][Phe(4-COOH)]G[Pro(cis-4-F)][Trp(βS-Me,4-F)][Aib]EW[Aib][X6]Q[Dab]G[dPro(4R-Bzl(4-F))])) is 0.012 nM.
Consider `C[C@@H](c1c[nH]c2cccc(F)c12)[C@@H]1NC(=O)[C@@H]2C[C@H](F)CN2C(=O)CNC(=O)[C@H](Cc2ccc(C(=O)O)cc2)NC(=O)[C@H](Cc2ccncc2)NC(=O)[C@H](Cc2ccc(-c3ccc(C(=O)O)cc3)cc2)NC(=O)[C@H]2[C@@H](Cc3ccc(F)cc3)CCN2C(=O)CNC(=O)[C@H](CCN)NC(=O)[C@H](CCC(N)=O)NC(=O)[C@H](Cc2cncnc2)NC(=O)C(C)(C)NC(=O)[C@H](Cc2c[nH]c3ccccc23)NC(=O)[C@H](CCC(=O)O)NC(=O)C(C)(C)NC1=O` [Example 346] (cyclo([Bip(4'-COOH)][4Pal][Phe(4-COOH)]G[Pro(cis-4-F)][Trp(βS-Me,4-F)][Aib]EW[Aib][Ala(pyrimidin-5-yl)]Q[Dab]G[dPro(3S-(4-F-Bn))])), for which the IC50 was determined as 0.01 nM.

Values taken from patent US20260242419A1, “A CYCLIC PEPTIDE FOR TRAPPING INTERLEUKIN-1 BETA” (Merck Sharp & Dohme LLC, priority 2023, published 2026).
